Here are results for six compounds from US4918105A, “Novel compounds with collagenase-inhibiting activity, a process for their preparation and pharmaceutical compositions in which these compounds are present” (SA Laboratoire Roger Bellon, priority 1987, dated 1990).

In test [1] the target is synovial collagenase of porcine or human origin. The test is described as follows: Anticollagenase activity: release of soluble peptides from radiolabeled collagen. The format is biochemical. The procedure: (§1) The anticollagenase activity of the compounds according to the present invention was determined on synovial collagenase of porcine or human origin, isolated from synovial cells in culture according to the procedure described by Cawston and Barrett (Cawston and Barrett (1979), Anal. Biochem. 99, 340-345). The collagenase was incubated at 37° C. with radiolabeled collagen and its activity was determined by the release of the soluble peptides produced by enzymatic degradation of the collagen. The inhibitory concentration IC50 for each compound was determined by measuring the activity of the enzyme in the presence of the inhibitor at a concentration of between 10^-5 and 10^-8 M.
Representative results of these tests are given for the compounds according to the invention in Table I.

The test system of another test is bone resorption. The test is described as follows: Bone resorption model in isolated organ (Ca++ release). The format is cell-based. The source says:
Anticollagenase activity has also been determined in a bone resorption model described by Delaisse et al. (Delaisse et al. (1985), Biochem. Biophys. Res. commun., 133, 483-490). This model, which utilizes the degradation of cartilage and bone in an isolated organ, is more physiological than direct determination of the enzyme activity in vitro. The results of the tests are collated in Table II; the same inhibitors are found to be active in both systems.

In the next test the target is ACE (Homo sapiens, UniProt P12821). The test can be described thus: Specificity of the inhibition: ACE. The following applies: for inhibition at 10 µM: 10^-5 M; for inhibition at 0.1 µM: 10^-7 M. The format is biochemical. On the procedure: (§2) The specificity of the inhibition was measured by studying several other enzymes, including metalloporteases other than collagenase.
ACE, sequence (P12821 30-1306, species assumed): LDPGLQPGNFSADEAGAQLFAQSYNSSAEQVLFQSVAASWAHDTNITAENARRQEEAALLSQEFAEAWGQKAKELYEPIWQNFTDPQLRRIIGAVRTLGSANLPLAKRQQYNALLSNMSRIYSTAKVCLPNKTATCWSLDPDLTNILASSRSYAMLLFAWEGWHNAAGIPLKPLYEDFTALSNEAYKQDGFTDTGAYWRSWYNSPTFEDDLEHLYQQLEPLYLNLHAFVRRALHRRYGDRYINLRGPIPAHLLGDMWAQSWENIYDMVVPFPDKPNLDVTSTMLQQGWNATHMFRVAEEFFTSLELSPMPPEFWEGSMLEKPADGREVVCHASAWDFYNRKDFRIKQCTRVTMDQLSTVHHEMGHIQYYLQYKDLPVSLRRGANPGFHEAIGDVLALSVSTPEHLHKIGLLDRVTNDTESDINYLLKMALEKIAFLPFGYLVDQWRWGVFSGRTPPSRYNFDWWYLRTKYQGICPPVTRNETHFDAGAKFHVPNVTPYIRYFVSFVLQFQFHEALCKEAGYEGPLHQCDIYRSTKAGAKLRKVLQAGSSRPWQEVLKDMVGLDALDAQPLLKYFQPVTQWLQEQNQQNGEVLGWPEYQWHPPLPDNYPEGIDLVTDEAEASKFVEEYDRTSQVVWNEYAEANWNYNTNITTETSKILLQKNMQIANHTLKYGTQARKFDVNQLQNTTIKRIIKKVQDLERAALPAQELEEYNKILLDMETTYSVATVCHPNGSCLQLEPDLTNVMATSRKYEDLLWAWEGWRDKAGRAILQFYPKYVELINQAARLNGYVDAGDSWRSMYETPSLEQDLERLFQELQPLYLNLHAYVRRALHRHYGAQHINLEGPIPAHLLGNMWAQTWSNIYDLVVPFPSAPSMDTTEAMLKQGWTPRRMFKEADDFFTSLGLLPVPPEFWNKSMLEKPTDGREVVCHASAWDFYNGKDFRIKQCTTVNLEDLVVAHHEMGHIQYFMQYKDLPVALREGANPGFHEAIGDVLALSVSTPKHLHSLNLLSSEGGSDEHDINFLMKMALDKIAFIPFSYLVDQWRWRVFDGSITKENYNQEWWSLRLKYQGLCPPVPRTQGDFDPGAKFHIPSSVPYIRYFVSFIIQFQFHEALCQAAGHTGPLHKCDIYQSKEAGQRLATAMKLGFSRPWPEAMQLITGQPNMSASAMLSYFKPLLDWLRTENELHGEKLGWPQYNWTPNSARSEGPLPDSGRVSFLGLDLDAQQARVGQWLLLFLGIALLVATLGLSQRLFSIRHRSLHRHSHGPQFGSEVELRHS

For the next test, the target named is α-Chymotrypsin (Bos taurus, UniProt P00766). The test can be described thus: Specificity of the inhibition: α-chymotrypsin. In kind it is biochemical. The following applies: for inhibition at 10 µM: 10^-5 M; for inhibition at 0.1 µM: 10^-7 M. The procedure:
as §2

Another test addresses T1, Carboxypeptidase A (Bos taurus, UniProt P00730).
T1 sequence (P00730 111-419): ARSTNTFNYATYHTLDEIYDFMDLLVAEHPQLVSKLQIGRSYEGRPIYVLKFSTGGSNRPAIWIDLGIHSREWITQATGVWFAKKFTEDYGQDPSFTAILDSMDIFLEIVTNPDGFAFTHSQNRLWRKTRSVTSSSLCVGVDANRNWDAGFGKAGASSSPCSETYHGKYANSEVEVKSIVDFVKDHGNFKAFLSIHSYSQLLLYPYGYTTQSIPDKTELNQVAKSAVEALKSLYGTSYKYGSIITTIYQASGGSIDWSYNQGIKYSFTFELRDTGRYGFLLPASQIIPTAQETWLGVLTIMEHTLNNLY
The test can be described thus: Specificity of the inhibition: carboxypeptidase A. In kind it is biochemical. The following applies: for inhibition at 10 µM: 10^-5 M; for inhibition at 0.1 µM: 10^-7 M. On the procedure: as §2

In another test the target is T2, Papain (Carica papaya, UniProt P00784).
T2 sequence (P00784 134-345): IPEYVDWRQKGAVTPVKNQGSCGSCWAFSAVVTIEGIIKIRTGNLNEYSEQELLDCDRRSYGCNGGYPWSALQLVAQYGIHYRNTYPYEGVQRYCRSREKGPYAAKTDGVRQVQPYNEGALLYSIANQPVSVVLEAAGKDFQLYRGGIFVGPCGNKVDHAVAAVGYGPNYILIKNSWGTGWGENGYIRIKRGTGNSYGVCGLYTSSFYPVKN
The test is described as follows: Specificity of the inhibition: papain. In kind it is biochemical. The following applies: for inhibition at 10 µM: 10^-5 M; for inhibition at 0.1 µM: 10^-7 M. On the procedure:
as §2

In a further test the target is Pepsin (Sus scrofa, UniProt P00791). The test can be described thus: Specificity of the inhibition: pepsin. The following applies: for inhibition at 10 µM: 10^-5 M; for inhibition at 0.1 µM: 10^-7 M. In kind it is biochemical. The procedure: as §2
Pepsin, sequence (P00791 60-385): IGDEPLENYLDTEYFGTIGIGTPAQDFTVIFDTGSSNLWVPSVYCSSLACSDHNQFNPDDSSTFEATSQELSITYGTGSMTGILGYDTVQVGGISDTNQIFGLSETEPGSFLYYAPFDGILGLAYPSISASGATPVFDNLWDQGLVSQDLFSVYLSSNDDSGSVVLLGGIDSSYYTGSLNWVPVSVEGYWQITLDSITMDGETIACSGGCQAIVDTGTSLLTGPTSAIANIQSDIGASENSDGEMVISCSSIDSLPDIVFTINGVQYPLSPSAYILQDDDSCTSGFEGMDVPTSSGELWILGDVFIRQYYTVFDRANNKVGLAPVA
A further test deals with Plasmin (Homo sapiens, UniProt P00747). The test can be described thus: Specificity of the inhibition: plasmin. The following applies: for inhibition at 10 µM: 10^-5 M; for inhibition at 0.1 µM: 10^-7 M. The format is biochemical. On the procedure:
as §2

The next test has as its target T3, Trypsin (Bos taurus, UniProt P00760).
T3 sequence (P00760 24-246): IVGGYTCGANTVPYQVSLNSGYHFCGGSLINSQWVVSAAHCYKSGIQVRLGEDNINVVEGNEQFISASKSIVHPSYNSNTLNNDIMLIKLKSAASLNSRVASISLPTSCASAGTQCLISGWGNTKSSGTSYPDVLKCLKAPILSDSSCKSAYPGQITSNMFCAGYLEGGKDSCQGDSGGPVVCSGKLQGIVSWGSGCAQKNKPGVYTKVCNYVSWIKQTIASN
The test can be described thus: Specificity of the inhibition: trypsin. The following applies: for inhibition at 10 µM: 10^-5 M; for inhibition at 0.1 µM: 10^-7 M. In kind it is biochemical. The procedure:
as §2

A further test deals with Thrombin (Homo sapiens, UniProt P00734). The test is described as follows: Specificity of the inhibition: thrombin. The format is biochemical. The following applies: for inhibition at 10 µM: 10^-5 M; for inhibition at 0.1 µM: 10^-7 M. On the procedure: as §2
The target of the next test is T4, Human collagenase (Homo sapiens, UniProt P03956).
T4 construct: isolated from synovial cells in culture; endogenous in cells; host or cells: human synovial cells in culture
T4 sequence (P03956 100-469): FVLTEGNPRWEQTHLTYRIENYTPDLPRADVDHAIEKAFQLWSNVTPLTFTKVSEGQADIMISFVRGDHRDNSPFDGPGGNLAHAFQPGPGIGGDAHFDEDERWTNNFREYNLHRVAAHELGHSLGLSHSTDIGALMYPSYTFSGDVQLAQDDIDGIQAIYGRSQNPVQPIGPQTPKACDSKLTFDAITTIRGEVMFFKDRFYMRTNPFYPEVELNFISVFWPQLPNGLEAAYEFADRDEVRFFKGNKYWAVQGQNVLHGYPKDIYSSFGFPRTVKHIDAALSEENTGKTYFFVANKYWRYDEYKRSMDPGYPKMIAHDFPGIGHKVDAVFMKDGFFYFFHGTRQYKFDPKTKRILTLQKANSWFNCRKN
The test is described as follows: Specificity of the inhibition: human collagenase. The format is biochemical. The following applies: for inhibition at 10 µM: 10^-5 M; for inhibition at 0.1 µM: 10^-7 M. On the procedure:
as §1, §2

In a further test the target is T5, Carboxypeptidase B (Sus scrofa, UniProt P09955).
T5 sequence (P09955 111-416): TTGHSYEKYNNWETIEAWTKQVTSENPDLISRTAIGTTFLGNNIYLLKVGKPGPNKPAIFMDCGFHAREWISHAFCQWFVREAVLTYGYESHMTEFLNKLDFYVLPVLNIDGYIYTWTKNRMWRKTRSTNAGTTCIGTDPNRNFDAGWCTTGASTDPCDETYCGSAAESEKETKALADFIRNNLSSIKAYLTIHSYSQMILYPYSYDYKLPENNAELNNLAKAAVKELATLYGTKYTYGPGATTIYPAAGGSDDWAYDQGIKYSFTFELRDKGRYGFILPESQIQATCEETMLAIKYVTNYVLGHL
The test can be described thus: Specificity of the inhibition: carboxypeptidase B. In kind it is biochemical. The following applies: for inhibition at 10 µM: 10^-5 M; for inhibition at 0.1 µM: 10^-7 M. The procedure: as §2

The target in the next test is T6, Porcine collagenase (Sus scrofa, UniProt P21692).
T6 construct: isolated from synovial cells in culture; endogenous in cells; host or cells: porcine synovial cells in culture
T6 sequence (P21692 100-469): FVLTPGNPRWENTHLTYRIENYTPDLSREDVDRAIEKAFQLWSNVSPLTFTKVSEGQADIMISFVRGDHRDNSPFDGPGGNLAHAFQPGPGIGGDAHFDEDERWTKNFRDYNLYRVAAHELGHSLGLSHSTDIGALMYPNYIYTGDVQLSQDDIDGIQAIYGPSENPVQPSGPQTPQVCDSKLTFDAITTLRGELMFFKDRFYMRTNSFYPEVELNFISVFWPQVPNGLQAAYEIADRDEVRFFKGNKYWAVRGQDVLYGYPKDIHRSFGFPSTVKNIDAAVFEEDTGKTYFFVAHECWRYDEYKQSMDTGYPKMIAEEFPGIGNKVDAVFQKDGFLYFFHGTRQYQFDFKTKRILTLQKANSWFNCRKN
The test can be described thus: Specificity of the inhibition: porcine collagenase. In kind it is biochemical. The following applies: for inhibition at 10 µM: 10^-5 M; for inhibition at 0.1 µM: 10^-7 M. On the procedure: as §1, §2

Where [2] appears, read: Table I, % inhibition 50, read-out: Concentration for 50 % inhibition (IC50), anticollagenase activity.

SMILES strings stand for the structures. pIC50: −log10 of the molar value. Like-named read-outs stand apart in the source and are kept apart here.

The term inhibition denotes the percentage by which the read-out fell short of the control. Read a low inhibition as a response near the control.

Plasmin, sequence (P00747 581-810 limits assumed, species assumed): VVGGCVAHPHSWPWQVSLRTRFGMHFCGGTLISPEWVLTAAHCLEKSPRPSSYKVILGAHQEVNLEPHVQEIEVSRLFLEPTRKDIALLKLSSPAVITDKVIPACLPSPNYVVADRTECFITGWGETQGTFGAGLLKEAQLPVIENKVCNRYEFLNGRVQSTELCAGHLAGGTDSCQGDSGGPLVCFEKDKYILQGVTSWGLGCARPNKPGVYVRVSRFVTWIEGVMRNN
Plasmin, sequence (P00747 97-580 partner limits assumed, species assumed): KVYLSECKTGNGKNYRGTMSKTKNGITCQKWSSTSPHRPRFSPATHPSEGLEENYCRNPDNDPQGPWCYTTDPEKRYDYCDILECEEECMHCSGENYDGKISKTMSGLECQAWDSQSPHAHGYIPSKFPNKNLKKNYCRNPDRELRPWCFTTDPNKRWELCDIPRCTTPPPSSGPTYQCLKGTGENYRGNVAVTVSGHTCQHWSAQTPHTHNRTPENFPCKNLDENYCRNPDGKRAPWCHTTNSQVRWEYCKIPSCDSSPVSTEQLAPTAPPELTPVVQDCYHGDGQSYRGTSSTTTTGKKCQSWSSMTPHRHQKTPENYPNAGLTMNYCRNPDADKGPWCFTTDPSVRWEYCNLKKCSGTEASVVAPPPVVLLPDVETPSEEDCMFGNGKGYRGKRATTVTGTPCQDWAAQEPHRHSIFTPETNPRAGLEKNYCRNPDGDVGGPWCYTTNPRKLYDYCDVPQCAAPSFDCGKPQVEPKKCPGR

For `CC(C)CC(CC(=O)NO)C(=O)N[C@H](C(=O)NCc1ccccc1)C(C)C` (single isomer, unassigned) [Example 3, N-Benzyl-Nα-(N-hydroxy-2-isobutylsuccinamoyl)-L-valinamide, B form], the pIC50 is 7.46 in test [1] (setting [2]) and 7.46 in test [1] (Table II, listed as Example 2, isomer B, read-out: collagenase inhibition IC50). The “% protection against bone resorption (Ca++ release)” value with bone resorption (8 μM, listed as Example 2, isomer B) is 90-100%; in the test on bone resorption (25 μM, listed as Example 2, isomer B), 90-100%.
For the compound `CC(C)CC(CC(=O)NO)C(=O)N[C@H](C(=O)NCc1ccc(C(F)(F)F)cc1)C(C)C` (single isomer, unassigned) [Example 4, N-(4-Trifluoromethylbenzyl)-Nα-(N-hydroxy-2-isobutylsuccinamoyl)-L-valinamide, B form], in test [1] (setting [2]), the pIC50 was 7.10.
For `CC(C)CC(CC(=O)NO)C(=O)N[C@H](C(=O)NCc1ccccc1)C(C)C` (single isomer, unassigned) [Example 2, isomer A, N-Benzyl-Nα-(N-hydroxy-2-isobutylsuccinamoyl)-L-valinamide], the pIC50 in test [1] (Table II, read-out: collagenase inhibition IC50) was 4.80. Also, the “% protection against bone resorption (Ca++ release)” value in the test with bone resorption (8 μM) and with bone resorption (25 μM) was 0% throughout.
Take `CC(C)CC(CC(=O)NO)C(=O)N[C@H](C(=O)NCc1ccccc1)C(C)C` (single isomer, unassigned) [Example 2, N-Benzyl-Nα-(N-hydroxy-2-isobutylsuccinamoyl)-L-valinamide]: the inhibition at 10 µM worked out at 40% against ACE; 0% against α-Chymotrypsin; 0% against Carboxypeptidase A; 5% at Papain; 19% at Pepsin; 0% on Plasmin. Moreover, the inhibition at 10 µM at Trypsin came out at 0%; at Thrombin, 5%; on Human collagenase, 100%; at Carboxypeptidase B it was 0%; on Porcine collagenase, 100%. The inhibition at 0.1 µM against ACE came out at 4%; on α-Chymotrypsin, 0%; against Carboxypeptidase A, 0%; on Papain, 0%; against Pepsin, 0%; at Plasmin, 0%. Also, the inhibition at 0.1 µM at Trypsin turned out to be 0%; against Thrombin, 0%; on Human collagenase it was 30%; on Carboxypeptidase B, 0%; against Porcine collagenase it was 52%.
Regarding `CC(C)CC(CC(=O)NO)C(=O)N[C@H](C(=O)NCCc1ccccc1)C(C)C` (single isomer, unassigned) [Example 5, N-Phenethyl-Nα-(N-hydroxy-2-isobutylsuccinamoyl)-L-valinamide, B form], in [1] (setting [2]), the pIC50 was 7.12.
As for `CC(C)CC(CC(=O)NO)C(=O)N[C@H](C(N)=O)C(C)C` (stereo partly drawn) [Example 1, Nα-(N-hydroxy-2-isobutylsuccinamoyl)-L-valinamide], the inhibition at 10 µM at ACE came out at 4%; against α-Chymotrypsin, 0%; at Carboxypeptidase A, 0%; at Papain, 5%; against Pepsin, 19%; on Plasmin it was 0%. Also, the inhibition at 10 µM against Trypsin was determined as 0%; on Thrombin, 0%; at Human collagenase, 100%; on Carboxypeptidase B, 0%; at Porcine collagenase it was 100%. The inhibition at 0.1 µM on ACE, against α-Chymotrypsin, at Carboxypeptidase A, on Papain, at Pepsin and on Plasmin was 0% in each case. For the same compound, the inhibition at 0.1 µM stood at 0% at Trypsin; 0% at Thrombin; 12% on Human collagenase; 0% on Carboxypeptidase B; 23% against Porcine collagenase. In [1] (setting [2]), the pIC50 was 6.49.
